Assays:
HL-60 [1] = experiment: Induction of cell cycle arrest in human HL-60 cells assessed as accumulation of cells at G0/G1 phase at 25 uM measured after 24 hrs by propidium iodide staining based flow cytometry (reference value: 66.61%); assay type: functional
HL-60 [2] = experiment: Induction of cell cycle arrest in human HL-60 cells assessed as accumulation of cells at SubG1 phase at 25 uM measured after 24 hrs by propidium iodide staining based flow cytometry (reference value: 5.89%); assay type: functional
HL-60 [3] = experiment: Induction of cell cycle arrest in human HL-60 cells assessed as accumulation of cells at SubG1 phase at 10 uM measured after 48 hrs by propidium iodide staining based flow cytometry (reference value: 4.25%); assay type: functional
MOLT-4 [4] = experiment: Anticancer activity against human MOLT-4 cells assessed as growth inhibition measured after 48 hrs by SRB assay relative to control; assay type: functional
K562 [5] = experiment: Anticancer activity against human K562 cells assessed as growth inhibition measured after 48 hrs by SRB assay relative to control; assay type: functional
BV-2 [6] = experiment: Anti-inflammatory activity against mouse BV-2 cells assessed as inhibition of LPS-induced PGE2 production pretreated for 2 hrs followed stimulated with LPS for 22 hrs at 10 uM relative to control; assay type: functional; conditions: time 24 hrs
CCRF-CEM [7] = experiment: Anticancer activity against human CCRF-CEM cells assessed as growth inhibition at 10 uM measured after 48 hrs by SRB assay relative to control; assay type: functional; conditions: read-out: GI
RPMI-8226 [8] = experiment: Anticancer activity against human RPMI-8226 cells assessed as growth inhibition measured after 48 hrs by SRB assay relative to control; assay type: functional
HL-60 [9] = experiment: Induction of cell cycle arrest in human HL-60 cells assessed as accumulation of cells at G0/G1 phase at 10 uM measured after 48 hrs by propidium iodide staining based flow cytometry (reference value: 60.03%); assay type: functional
MOLT-4 [10] = experiment: Anticancer activity against human MOLT-4 cells assessed as growth inhibition at 10 uM measured after 48 hrs by SRB assay relative to control; assay type: functional; conditions: read-out: GI
SR [11] = experiment: Anticancer activity against human SR cells assessed as growth inhibition measured after 48 hrs by SRB assay relative to control; assay type: functional
HL-60 [12] = experiment: Induction of cell cycle arrest in human HL-60 cells assessed as accumulation of cells at G2/M phase at 10 uM measured after 24 hrs by propidium iodide staining based flow cytometry (reference value: 9.01%); assay type: functional
BV-2 [13] = experiment: Anti-inflammatory activity against mouse BV-2 cells assessed as inhibition of LPS-induced TNFalpha production pretreated for 2 hrs followed stimulated with LPS for 22 hrs; assay type: functional, cell-based; conditions: time 24.0 hrs
BV-2 [14] = experiment: Anti-inflammatory activity against mouse BV-2 cells assessed as inhibition of LPS-induced NO production pretreated for 2 hrs followed stimulated with LPS for 22 hrs by Griess reaction assay; assay type: functional, cell-based
HL-60 [15] = experiment: Induction of cell cycle arrest in human HL-60 cells assessed as accumulation of cells at SubG1 phase at 25 uM measured after 48 hrs by propidium iodide staining based flow cytometry (reference value: 4.25%); assay type: functional
HL-60 [16] = experiment: Induction of cell cycle arrest in human HL-60 cells assessed as accumulation of cells at G2/M phase at 10 uM measured after 48 hrs by propidium iodide staining based flow cytometry (reference value: 16.61%); assay type: functional
BV-2 [17] = experiment: Anti-inflammatory activity against mouse BV-2 cells assessed as inhibition of LPS-induced TNFalpha production pretreated for 2 hrs followed stimulated with LPS for 22 hrs at 10 uM relative to control; assay type: functional; conditions: time 24 hrs
HL-60 [18] = experiment: Induction of cell cycle arrest in human HL-60 cells assessed as accumulation of cells at S phase at 50 uM measured after 48 hrs by propidium iodide staining based flow cytometry (reference value: 7.16%); assay type: functional
K562 [19] = experiment: Anticancer activity against human K562 cells assessed as growth inhibition at 10 uM measured after 48 hrs by SRB assay relative to control; assay type: functional; conditions: read-out: GI
HL-60 [20] = experiment: Induction of apoptosis in human HL-60 cells assessed as total apoptotic cells measured after 24 hrs by annexin V/propidium iodide staining based FACS assay; assay type: functional, cell-based; conditions: dose 10-50 µM
HL-60 [21] = experiment: Induction of cell cycle arrest in human HL-60 cells assessed as accumulation of cells at G2/M phase at 50 uM measured after 24 hrs by propidium iodide staining based flow cytometry (reference value: 9.01%); assay type: functional
HL-60 [22] = experiment: Induction of cell cycle arrest in human HL-60 cells assessed as accumulation of cells at G2/M phase at 25 uM measured after 24 hrs by propidium iodide staining based flow cytometry (reference value: 9.01%); assay type: functional
HL-60 [23] = experiment: Induction of cell cycle arrest in human HL-60 cells assessed as accumulation of cells at G0/G1 phase at 50 uM measured after 24 hrs by propidium iodide staining based flow cytometry (reference value: 66.61%); assay type: functional
HL-60 [24] = experiment: Anticancer activity against human HL-60 cells assessed as growth inhibition measured after 48 hrs by SRB assay relative to control; assay type: functional
HL-60 [25] = experiment: Induction of cell cycle arrest in human HL-60 cells assessed as accumulation of cells at S phase at 25 uM measured after 24 hrs by propidium iodide staining based flow cytometry (reference value: 13.85%); assay type: functional
HL-60 [26] = experiment: Induction of cell cycle arrest in human HL-60 cells assessed as accumulation of cells at G0/G1 phase at 10 uM measured after 24 hrs by propidium iodide staining based flow cytometry (reference value: 66.61%); assay type: functional
HL-60 [27] = experiment: Induction of cell cycle arrest in human HL-60 cells assessed as accumulation of cells at S phase at 50 uM measured after 24 hrs by propidium iodide staining based flow cytometry (reference value: 13.85%); assay type: functional
RPMI-8226 [28] = experiment: Anticancer activity against human RPMI-8226 cells assessed as growth inhibition at 10 uM measured after 48 hrs by SRB assay relative to control; assay type: functional; conditions: read-out: GI
HL-60 [29] = experiment: Induction of cell cycle arrest in human HL-60 cells assessed as accumulation of cells at SubG1 phase at 50 uM measured after 24 hrs by propidium iodide staining based flow cytometry (reference value: 5.89%); assay type: functional
BV-2 [30] = experiment: Anti-inflammatory activity against mouse BV-2 cells assessed as inhibition of LPS-induced NO production at 10 uM pretreated for 2 hrs followed stimulated with LPS for 22 hrs by Griess reaction assay relative to control; assay type: functional; conditions: time 24 hrs
HL-60 [31] = experiment: Induction of cell cycle arrest in human HL-60 cells assessed as accumulation of cells at SubG1 phase at 10 uM measured after 24 hrs by propidium iodide staining based flow cytometry (reference value: 5.89%); assay type: functional
HL-60 [32] = experiment: Induction of cell cycle arrest in human HL-60 cells assessed as accumulation of cells at SubG1 phase at 50 uM measured after 48 hrs by propidium iodide staining based flow cytometry (reference value: 4.25%); assay type: functional
BV-2 [33] = experiment: Anti-inflammatory activity against mouse BV-2 cells assessed as inhibition of LPS-induced PGE2 production pretreated for 2 hrs followed stimulated with LPS for 22 hrs; assay type: functional, cell-based
HL-60 [34] = experiment: Induction of cell cycle arrest in human HL-60 cells assessed as accumulation of cells at G2/M phase at 25 uM measured after 48 hrs by propidium iodide staining based flow cytometry (reference value: 16.61%); assay type: functional
HL-60 [35] = experiment: Induction of cell cycle arrest in human HL-60 cells assessed as accumulation of cells at G0/G1 phase at 50 uM measured after 48 hrs by propidium iodide staining based flow cytometry (reference value: 60.03%); assay type: functional
HL-60 [36] = experiment: Induction of cell cycle arrest in human HL-60 cells assessed as accumulation of cells at S phase at 10 uM measured after 48 hrs by propidium iodide staining based flow cytometry (reference value: 7.16%); assay type: functional
HL-60 [37] = experiment: Induction of cell cycle arrest in human HL-60 cells assessed as accumulation of cells at G0/G1 phase at 25 uM measured after 48 hrs by propidium iodide staining based flow cytometry (reference value: 60.03%); assay type: functional
HL-60 [38] = experiment: Induction of cell cycle arrest in human HL-60 cells assessed as accumulation of cells at S phase at 25 uM measured after 48 hrs by propidium iodide staining based flow cytometry (reference value: 7.16%); assay type: functional
HL-60 [39] = experiment: Induction of cell cycle arrest in human HL-60 cells assessed as accumulation of cells at S phase at 10 uM measured after 24 hrs by propidium iodide staining based flow cytometry (reference value: 13.85%); assay type: functional
CCRF-CEM [40] = experiment: Anticancer activity against human CCRF-CEM cells assessed as growth inhibition measured after 48 hrs by SRB assay relative to control; assay type: functional
SR [41] = experiment: Anticancer activity against human SR cells assessed as growth inhibition at 10 uM measured after 48 hrs by SRB assay relative to control; assay type: functional; conditions: read-out: GI
HL-60 [42] = experiment: Induction of apoptosis in human HL-60 cells assessed as early apoptotic cells measured after 24 hrs by annexin V/propidium iodide staining based FACS assay; assay type: functional, cell-based; conditions: dose 10-50 µM
HL-60 [43] = experiment: Induction of cell cycle arrest in human HL-60 cells assessed as accumulation of cells at G2/M phase at 50 uM measured after 48 hrs by propidium iodide staining based flow cytometry (reference value: 16.61%); assay type: functional
[44] = Cytotoxicity against mouse RAW264.7 cells assessed as macrophage viability at 10 uM relative to control; assay type: toxicity, cell-based; conditions: read-out: Activity

COc1cc2c(c(OC)c1OC)C(=O)CC(c1cccc(NC(=O)c3ccc(Br)cc3)c1)O2 (racemic)
Activity (HL-60 [1]): 2.08%
Activity (HL-60 [2]): 43.13%
Activity (HL-60 [3]): 8.99%
GI50 (MOLT-4 [4]): 1630 nM
GI50 (K562 [5]): 1420 nM
inhibition at 10 µM (BV-2 [6]): 61.1%
inhibition of growth at 10 µM (CCRF-CEM [7]): 97.1%
GI50 (RPMI-8226 [8]): 1580 nM
Activity (HL-60 [9]): 33.83%
inhibition of growth at 10 µM (MOLT-4 [10]): 112%
GI50 (SR [11]): 1340 nM
Activity (HL-60 [12]): 5.69%
Activity (BV-2 [13]): Dose-Dependent Effect
IC50 (BV-2 [14]): 14700 nM
Activity (HL-60 [15]): 74.54%
Activity (HL-60 [16]): 26.61%
inhibition at 10 µM (BV-2 [17]): 50%
Activity (HL-60 [18]): 1.21%
inhibition of growth at 10 µM (K562 [19]): 94.1%
Activity (HL-60 [20]): Dose-Dependent Effect
Activity (HL-60 [21]): 1.8%
Activity (HL-60 [22]): 2.22%
Activity (HL-60 [23]): 4.82%
GI50 (HL-60 [24]): 1640 nM
Activity (HL-60 [25]): 27.79%
Activity (HL-60 [26]): 51.19%
Activity (HL-60 [27]): 5.77%
inhibition of growth at 10 µM (RPMI-8226 [28]): 105%
Activity (HL-60 [29]): 70.09%
inhibition at 10 µM (BV-2 [30]): 45.2%
Activity (HL-60 [31]): 6.15%
Activity (HL-60 [32]): 90.39%
IC50 (BV-2 [33]): 9100 nM
Activity (HL-60 [34]): 10.01%
Activity (HL-60 [35]): 3.96%
Activity (HL-60 [36]): 12.39%
Activity (HL-60 [37]): 5.89%
Activity (HL-60 [38]): 1.33%
Activity (HL-60 [39]): 19.25%
GI50 (CCRF-CEM [40]): 2620 nM
inhibition of growth at 10 µM (SR [41]): 96.1%
Activity (HL-60 [42]): Dose-Dependent Effect
Activity (HL-60 [43]): 1.61%
viability at 10 µM [44]: 106%
